# Data reported in PMC6433934, “Preclinical Evaluation of Bispecific Adaptor Molecule Controlled Folate Receptor CAR-T Cell Therapy With Special Focus on Pediatric Malignancies” (Frontiers in Oncology, 2019).
# Key:
# HOS-FRα tumors = assay: Osteosarcoma study, subcutaneous xenografts, EC17 dose escalation; format: in vivo
# Experimental: (§1) All animal care and use were performed according to NIH guidelines and in compliance with protocols approved by the Purdue University Animal Use and Care Committee. Female 4 to 5-weeks-old NOD/SCID gamma (NSG™) mice (stock number: 005557) were purchased from The Jackson Laboratory (Bar Harbor, ME). Unless specifically indicated, all animals were maintained on a FA-deficient diet (TestDiet, St. Louis, MO) upon arrival and throughout the study. To establish subcutaneous xenografts, MDA-MB-231 and HOS-FRα were implanted in the right flank region at 2.5 × 10^6 and 1 × 10^6 cells per animal, respectively. For intravenous xenografts, THP1-FRβ cells were inoculated at 5 × 10^6 cells per animal. Subcutaneous tumors were measured 2–3 times per week with a caliper and calculated using the ellipsoidal formula (length x width^2)/2. […] All animal doses (CAR-T cells, EC17, sodium fluorescein) were given intravenously.
# For osteosarcoma study, two cohorts of mice were subcutaneously implanted with HOS-FRα tumor cells 3 days prior to receiving ~6 million of the same CAR-T cell preparation used in the THP1-FRβ study. At ~3.5 days post CAR-T cell infusion, one cohort of mice was given up to 3 cycles of EC17 at 5/10/100 nmol/kg in Cycle 1, 5/30/300 nmol/kg in Cycle 2, and 5/50/500 nmol/kg in Cycle 3, all following the Monday/Thursday/Monday regimen with a 6 day break in-between cycles. At the end of study, circulating CD3ε+ EGFRt+ CAR-T cells per 100 μL of mouse blood were enumerated. HOS-FRα tumors (+/- EC17 treatment) were also harvested and digested for flow cytometric analysis of tumor-infiltrating CAR-T cells.
# Depending on the CAR-T cell dose and how EC17 is administered, tumor-bearing mice receiving FITC-specific CAR-T cells can experience severe CRS and varying degrees of body weight loss ([27], [33], [34]). Therefore, we developed a CRS grading system (0–5 scale) to empirically assess CRS toxicity from animals' gross morphology and social behavior to allow for better timing of CRS rescue. While grades 0 and 5 indicated normal (no CRS) or death (due to severe CRS), respectively, grades 1, 2, and 3–4 were considered mild, light-to-moderate, and severe CRS. In addition, all EC17 doses were intentionally given toward the end of any given day to allow potential CRS symptoms to develop overnight. On the days immediately following each EC17 dose, animals were scored and rescue agents such as sodium fluorescein, folic acid and leucovorin were used to mitigate CRS toxicity ([33]). In this particular instance, a batch of E2-CAR-T cells with a high EGFRt+ CD4/CD8 ratio (~93:7) was given to HOS-FRα tumor-bearing mice at a mixture of ~2.5 million CD8 and ~33 million CD4 on day 0. […]
# [1] = test system: HOS-FRα tumor-bearing mice; assay: Toxicity and CRS rescue with sodium fluorescein; format: in vivo; details: ~2.5 million CD8 and ~33 million CD4 E2-CAR-T cells
# Experimental: Depending on the CAR-T cell dose and how EC17 is administered, tumor-bearing mice receiving FITC-specific CAR-T cells can experience severe CRS and varying degrees of body weight loss ([27], [33], [34]). Therefore, we developed a CRS grading system (0–5 scale) to empirically assess CRS toxicity from animals' gross morphology and social behavior to allow for better timing of CRS rescue. While grades 0 and 5 indicated normal (no CRS) or death (due to severe CRS), respectively, grades 1, 2, and 3–4 were considered mild, light-to-moderate, and severe CRS. In addition, all EC17 doses were intentionally given toward the end of any given day to allow potential CRS symptoms to develop overnight. On the days immediately following each EC17 dose, animals were scored and rescue agents such as sodium fluorescein, folic acid and leucovorin were used to mitigate CRS toxicity ([33]). In this particular instance, a batch of E2-CAR-T cells with a high EGFRt+ CD4/CD8 ratio (~93:7) was given to HOS-FRα tumor-bearing mice at a mixture of ~2.5 million CD8 and ~33 million CD4 on day 0. When EC17 was dosed, respectively, at 500, 100, and 500 nmol/kg on days 3, 10, and 12, low CRS (grades 1–2) was noted on days 4 and 11 but high CRS (grade 3) was noted on day 13. To mitigate the severe CRS toxicity, sodium fluorescein was intravenously administrated at ~96 mg/kg in the morning of day 13 and mouse plasma samples were collected 6 h later for analysis of CRS-associated cytokines.
# MDA-MB-231 tumor = assay: Kinetics of CAR-T cell expansion and tumor uptake in vivo; parameters: species or system NSG mice; details: ~4.8 million EGFRt-sorted E2-CAR-T cells day 0, EC17 500 nmol/kg weekly i.v.
# Experimental: as §1
# To study CAR-T cell expansion in vivo, we started with 15 MDA-MB-231 tumor bearing mice having ~4.8 million EGFRt-sorted E2-CAR-T cells (1:1 CD4/CD8) injected on day 0. […] For each collection, fresh blood and tumor samples (if available) were analyzed for the presence of human CD3ε+ EGFRt+ CAR-T cells by flow cytometry. Moreover, we analyzed phenotypic changes of E2-CAR-T cells in the circulation (TSCM, TCM, TEM, and TEFF) and the activation status of tumor-infiltrating CAR-T cells (i.e., CD137/4-1BB, PD1).
# For CAR-T cell analysis in the circulation, plasma was removed from a predetermined volume of whole blood collected into tubes containing ethylenediaminetetraacetic acid anticoagulant. […] A minimum of 20,000 propidium iodide negative live cell events were collected on the Gallios flow cytometer and analyzed with the Kaluza software, version 2.1 (Beckman Coulter, Brea, CA). CAR-positive T cells were identified in mouse blood as human CD3ε+ EGFRt+ events and absolute numbers per volume of blood were calculated using equal numbers of CountBright™ beads (Invitrogen, Carlsbad, CA) added to each sample. […]
smiles,measurement,setting,value
"Nc1nc2ncc(CNc3ccc(C(=O)NC(CCC(=O)NCCNC(=S)Nc4ccc(-c5c6ccc(=O)cc-6oc6cc(O)ccc56)c(C(=O)O)c4)C(=O)O)cc3)nc2c(=O)[nH]1 (stereo not drawn) [EC17, FA-(γ)-ethylenediamine-FITC]","safety (CRS, body weight)","HOS-FRα tumors; EC17 M/Th/M escalation 5/10/100, 5/30/300, 5/50/500 nmol/kg, ~6 million E2-CAR-T cells",no CRS or body weight loss
same,tumor growth,"HOS-FRα tumors; EC17 M/Th/M escalation, within the first two cycles, ~6 million E2-CAR-T cells",significant delay in tumor growth
same,cures,"HOS-FRα tumors; HOS-FRα xenografts, EC17 plus E2-CAR-T cells",no cures
same,intratumoral CD3ε+ EGFRt+ CAR-T cell population,"HOS-FRα tumors; day 33, EC17-treated animals",~ 1 % total viable digested tumor-derived cells
same,CRS grade,"[1]; day 13, after EC17 500 nmol/kg on day 12",3
same,CRS grade,"[1]; days 4 and 11, after EC17 500 and 100 nmol/kg on days 3 and 10",1–2
same,time of peak of circulating CAR-T cells,MDA-MB-231 tumor,~15 days
same,tumor response,MDA-MB-231 tumor; smaller tumors,started to respond after the second EC17 dose
same,persistence of circulating CAR-T cells,MDA-MB-231 tumor; last analysis by flow cytometry,up to 30 days
